Results on 24 molecules are retold here after PMC11965977, “Selective Antiproliferative and Apoptotic Effects of 2,6‐Diketopiperazines on MDA‐MB‐231 Triple‐Negative Breast Cancer” (Chemical Biology & Drug Design, 2025).

Common to all, as to format: cell-based
The subject of data set [1] is MDA‐MB‐231 triple‐negative breast cancer cells. Kind of data set: Antiproliferative activity by MTT assay on MDA‐MB‐231 cell line. As to conditions: Homo sapiens, 24 h treatment, 1% DMSO, mean ± standard deviation of three separate determinations, read-out: IC50 of inhibitory activity on MDA‐MB‐231 triple‐negative breast cancer cells. The method, then: The antiproliferative activity of 2,6‐diketopiperazines 1, stereoisomers (S)‐2a‐14a, and (R)‐2b‐4b, 6b‐8b, and 11b‐14b was evaluated by the MTT assay on the MDA‐MB‐231 cell line using TSA as positive control at 50 μM. […] Compounds 1 and both (S) and (R) enantiomers reveal differences in their inhibitory effects.
(§1) Cell lines of the MDA‐MB‐231 of TNBC and VERO from healthy kidney cells used in this work were donated by ‘National Institute of Cancerology of the Ministry of Health’ from Mexico. MDA‐MB‐231 and Vero cells preserved at −70°C in DMEM F12 medium Gibco, 10% FBS, 5% DMSO, and 5% glycerol were thawed at 37°C and resuspended in DMEM F12 medium, supplemented with 10% FBS and antibiotic (penicillin 100 UI/mL, streptomycin 100 μg/mL and amphotericin 250 μg/mL) and then centrifuged at 2000 rpm for 10 min. The supernatant was removed, and the cells were resuspended in DMEM F12 medium, supplemented with 10% FBS and antibiotic, seeded in 25 cm^2 culture flasks Corning, and incubated at 37°C with 5% CO2 until at least 90% confluence was reached.
(§2) The MTT assay was used to measure metabolically active cells. Cells were seeded into 96‐well microtiter plates Corning at […] in 100 μL of DMEM‐F12 medium supplemented with 10% FBS and antibiotic Gibco (penicillin 100 IU/mL, streptomycin 100 μg/mL and amphotericin 250 μg/mL). After reaching confluence, cells were treated for 24 h with compounds 1, (S)‐2–14 and (R)‐2–4, 6–8, 11–14 stereoisomers, at concentrations of […], 0.00229, 0.0073, 0.0243, 0.081, 0.27, 0.9, 3.0, 10.0, and 12.0 mM at 1% DMSO, with compounds 1, (S)‐2a, ‐4a, and ‐5a at concentrations of 0.00066, 0.00229, 0.0073, 0.0243, 0.081, 0.27, 0.9, 3.0,10.0, and 12 mM at 1% DMSO, using DMSO 1% in DMEM F12 as the negative control and TSA as the positive control at 50 μM (Sanaei and Kavoosi [2020]). Post‐treatment, cell viability was measured by the conventional MTT dye‐reduction assay. Thus, 20 μL of MTT reagent (5 mg/mL) in PBS 1X was added to each well and incubated at 37 °C for 4 h. Viable cells with active mitochondria reduced the MTT to an insoluble purple formazan precipitate that was solubilized with the subsequent addition of 50 μL of DMSO. The formazan dye was measured spectrophotometrically using a microplate reader Molecular Devices. The cytotoxic impact of each treatment was quantified by determining cell viability as a percentage relative to untreated control cells, referred to as the percentage of control. This is calculated using the formula: [(A595 or A570 nm reading of treated cells)/(A595 or A570 nm reading of untreated cells)] × 100 (Mosmann [1983]; Plumb [1999]). All assays were performed in triplicate. Cell proliferation percentages relative to growth control cells were calculated, and inhibitory concentration 50 (IC50) values were calculated using a regression analysis of the concentration/antiproliferative activity ratio and analyzed using the statistical package prism (Graph‐Pad Software, San Diego, CA, USA).
(Tetrazolium dyes change colour on reduction, which living cells bring about.)

Data set [2] can be described thus: Cytotoxicity by MTT assay on healthy Vero kidney cell line. Particulars: African green monkey, Vero kidney cells (healthy), even at 12 mM concentrations (data not shown). The method, then: (§3) Compounds 1, (S)‐2a, −4a, and ‐5a presented the lowest IC50 values of all the compounds tested (see Table 1), so it was interesting to investigate their toxicity in healthy cells.
as §1, §2

Data set [3] concerns Vero kidney cell line. The data set is described as above. Particulars: concentrations 0.00066 to 12 mM. How it is done: as §3, §1, §2
Data set [4] concerns MDA‐MB‐231 cell line. Description: Apoptotic induction by Annexin V‐FITC/7AAD flow cytometry on MDA‐MB‐231 cell line. Particulars: MDA‐MB‐231, compound at its IC50 concentration. The source says: This work presents the apoptotic induction of the 2,6‐DKPs 1, (S)‐stereoisomers 2a to 6a derived from Gly, Ala, Val, Leu, Ile, and Pro α‐amino acids, respectively; as well as 9a to 14a derived from Tyr, Tyr (where the OH group is protected with an acetamide group), Ser, Thr, Met, and Trp α‐amino acids, respectively on the MDA‐MB‐231 cell line by flow cytometry. In this assay, 1% DMSO was used as a negative control and TSA as a positive control (Figure 2). The inhibition of proliferation may be due, among other mechanisms, to arrest in the cell cycle, and/or to an induction of cell death. In the second case, it is important to differentiate whether this death is necrotic inflammatory or apoptotic non‐inflammatory, which is desirable for anti‐cancer agents. […]
FIGURE 5 Flow Cytometry Analysis Strategy. […] A total of 5000/seg events were analyzed for each group.
Assays were performed using the commercial kit Annexin V labeled with the fluorochrome fluorescein isothiocyanate (FITC) BD Biosciences. […] After incubation time, the quantification of MDA‐MB‐231 cells was performed by flow cytometry with a FITC and 7AAD signal detector (FL1) and (FL3) on a FACS aria (Becton Dickinson). 5000/seg events were analyzed. Apoptotic induction percentages were calculated (Graph‐Pad Software, San Diego, CA, USA).
On the technique in general: In flow cytometry, cells or beads pass a laser one at a time.

SMILES strings stand for the structures.

What is called IC50 is the concentration that gives 50% inhibition. Regarding `C[C@H]1NCC(=O)NC1=O` [(R)‐2b], the IC50 in data set [1] was found to be 21 µM. As to `CC(C)[C@H]1NCC(=O)NC1=O` [(R)‐3b], the IC50 in data set [1] was found to be 822 ± 1350 µM. The same measure, in the same setting: for `CC(C)C[C@H]1NCC(=O)NC1=O` [(R)‐4b] the value was 265 µM; for `O=C1CN2CCC[C@@H]2C(=O)N1` [(R)‐6b], 584 ± 1010 µM. Regarding `O=C1CN[C@H](Cc2ccccc2)C(=O)N1` [(R)‐7b], the IC50 in data set [1] was 2150 ± 202 µM.

For the molecule `O=C1CN[C@H](Cc2ccc(OCc3ccccc3)cc2)C(=O)N1` [(R)‐8b], the IC50 in data set [1] turned out to be 3640 ± 1220 µM. With `O=C1CN[C@H](CO)C(=O)N1` [(R)‐11b], the IC50 in data set [1] came out at 801 ± 208 µM. For the molecule `CC(O)[C@H]1NCC(=O)NC1=O` (stereo partly drawn) [(R)‐12b], the IC50 in data set [1] was 1720 ± 85 µM. Consider `CSCC[C@H]1NCC(=O)NC1=O` [(R)‐13b], for which the IC50 in data set [1] came out at 1310 ± 284 µM. Consider `O=C1CN[C@H](Cc2c[nH]c3ccccc23)C(=O)N1` [(R)‐14b], for which the IC50 in data set [1] was determined as 357 ± 190 µM. As usually defined, the viability is a per cent measure of how many cells are alive, often set against a control. As to `C[C@@H]1NCC(=O)NC1=O` [(S)‐2a], in data set [1], the IC50 stood at 4.6 ± 0.169 µM. The molecule also returned a viability at 24 h, 12 mM in data set [2] of 100%. For the same molecule, in data set [3], the “Toxicity on Vero kidney cell line (in words)” value (shortened to “Toxicity”) is reported as “did not exhibit toxicity”. In the case of `CC(C)[C@@H]1NCC(=O)NC1=O` [(S)‐3a], the IC50 in data set [1] was found to be 17 µM. In the case of `CC(C)C[C@@H]1NCC(=O)NC1=O` [(S)‐4a], the IC50 in data set [1] was found to be 5.5 ± 0.235 µM. Further, in data set [2], the viability at 24 h, 12 mM is 100%. In addition, in data set [3], the “Toxicity” value is “did not exhibit toxicity”. As for `CCC(C)[C@@H]1NCC(=O)NC1=O` (stereo partly drawn) [(S)‐5a], in data set [1], the IC50 turned out to be 6.8 ± 0.028 µM. Also, in data set [2], the viability at 24 h, 12 mM was 100%. The “Toxicity” value in data set [3] is reported as “did not exhibit toxicity”. `O=C1CN2CCC[C@H]2C(=O)N1` [(S)‐6a]: the IC50 in data set [1] was 1020 ± 167 µM. Take `O=C1CN[C@@H](Cc2ccccc2)C(=O)N1` [(S)‐7a]: the IC50 in data set [1] amounted to 155 ± 322 µM. On to `O=C1CN[C@@H](Cc2ccc(OCc3ccccc3)cc2)C(=O)N1` [(S)‐8a], for which the IC50 in data set [1] turned out to be 4940 ± 733 µM. The same measure, in the same setting: for `O=C1CN[C@@H](Cc2ccc(O)cc2)C(=O)N1` [(S)‐9a] the value was 1669 ± 11 µM; for `NC(=O)COc1ccc(C[C@@H]2NCC(=O)NC2=O)cc1` [(S)‐10a], 469 ± 860 µM; for `O=C1CN[C@@H](CO)C(=O)N1` [(S)‐11a], 49 ± 26 µM. For `CC(O)[C@@H]1NCC(=O)NC1=O` (stereo partly drawn) [(S)‐12a], the IC50 in data set [1] was 2100 ± 249 µM. Besides, in data set [4], the “Decrease in apoptotic induction at 48 h compared to the 24 h test” value is recorded as 3%. `CSCC[C@@H]1NCC(=O)NC1=O` [(S)‐13a]: the IC50 in data set [1] was determined as 978 ± 96 µM.

As for `O=C1CN[C@@H](Cc2c[nH]c3ccccc23)C(=O)N1` [(S)‐14a], the IC50 in data set [1] worked out at 12 µM. For the molecule `O=C1CNCC(=O)N1` [Compound 1], in data set [1], the IC50 was found to be 4.6 ± 0.019 µM. The molecule further returned a viability at 24 h, 12 mM in data set [2] of 100%. Also, the “Toxicity” value in data set [3] was “did not exhibit toxicity”.
